Measurements taken from patent US12544417B2, “Oral film and stick jelly for improving absorption in the oral mucosa, antioxidant activity, anti-inflammatory activity, and liver function of humans and companion animals” (ESTHER FORMULA CO., LTD., priority 2022, dated 2026).

Test: DPPH-free radical scavenging
Type: biochemical
Conditions: ascorbic acid 100 μg/mL, positive control group
Description: 1% of the oral disintegrating film (Example 1-1), the oral mucosal adhesive film (Example 3-1), and the stick jelly (Example 4-1) were homogeneously dissolved, and centrifuged at 10,000 rpm and at 4° C. for 5 minutes to prepare a CFE (cell-free extract). 3.0 mL of a […] (DPPH) solution (5 mg/100 mL ethanol) was mixed with 500 μL of the prepared CFE, and the same amount of ethanol, MRS solution, and ascorbic acid (100 μg/mL) were used as a control group, a blank, and a comparative group, respectively. Then, the result was mixed with the DPPH solution and incubated in a dark room for 30 minutes, absorbance at 517 nm was measured, and the antioxidant activity was converted into % using Equation 1 below. [formula]

O=C1O[C@H]([C@@H](O)CO)C(O)=C1O [ascorbic acid]
DPPH-free radical scavenging (%): 90%
